Reference: doi:10.1101/2020.10.16.342121v1 (biorxiv, 2020)

Key:
[1] = target: T1, human serum albumin (HSA) (Homo sapiens, UniProt P02768); assay: intrinsic fluorescence quenching titration; type: binding
[2] = target: T1, human serum albumin (HSA); assay: thermal denaturation followed by intrinsic fluorescence; type: binding; conditions: 10 mM PBS pH 7.4, 0.4 μM HSA, 40 μM DHLA, 37-87 °C

T1 sequence (P02768 25-609): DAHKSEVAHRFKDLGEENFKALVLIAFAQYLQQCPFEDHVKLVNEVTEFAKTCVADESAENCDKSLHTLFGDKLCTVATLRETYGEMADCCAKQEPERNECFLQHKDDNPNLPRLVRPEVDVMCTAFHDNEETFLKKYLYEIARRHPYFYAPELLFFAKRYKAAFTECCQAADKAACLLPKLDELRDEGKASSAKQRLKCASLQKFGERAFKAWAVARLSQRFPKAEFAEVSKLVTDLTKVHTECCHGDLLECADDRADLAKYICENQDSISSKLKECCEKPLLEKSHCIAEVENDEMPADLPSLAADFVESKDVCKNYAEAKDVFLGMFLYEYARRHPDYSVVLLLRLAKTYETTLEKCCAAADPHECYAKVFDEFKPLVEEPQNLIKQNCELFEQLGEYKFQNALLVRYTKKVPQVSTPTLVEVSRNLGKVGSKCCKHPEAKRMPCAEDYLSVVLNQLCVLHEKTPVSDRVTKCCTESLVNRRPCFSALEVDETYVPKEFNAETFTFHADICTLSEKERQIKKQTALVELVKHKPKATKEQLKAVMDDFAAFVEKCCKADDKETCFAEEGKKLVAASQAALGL

`O=C(O)CCCC[C@@H](S)CCS` [dihydro-alpha-lipoic acid] was tested, and the Kd [1] was 125 µM and the “Tm with ligand (HSA alone 68 °C)” value [2] was 70 °C.
